Results taken from patent publication US5314884A, “2-pyrimidinyl-1-piperazine derivatives processes for their preparation and medicaments containing them” (Troponwerke GmbH & Co., priority 1983, dated 1994).
pIC50: −log10 of the molar value. Counter-ions that a name gives are not always drawn.

Legend:
[1] = molecular target: T1, serotonin receptors from calf hippocampus (Bos taurus, UniProt F6Q2H9); test: Serotonin receptor binding (3H-serotonin displacement); settings: read-out: Ki (concentration at which 50% of the 3H-serotonin employed is displaced)
T1 construct: serotonin receptors from calf hippocampus; from tissue; host or cells: calf hippocampus
T1 sequence (F6Q2H9 1-422): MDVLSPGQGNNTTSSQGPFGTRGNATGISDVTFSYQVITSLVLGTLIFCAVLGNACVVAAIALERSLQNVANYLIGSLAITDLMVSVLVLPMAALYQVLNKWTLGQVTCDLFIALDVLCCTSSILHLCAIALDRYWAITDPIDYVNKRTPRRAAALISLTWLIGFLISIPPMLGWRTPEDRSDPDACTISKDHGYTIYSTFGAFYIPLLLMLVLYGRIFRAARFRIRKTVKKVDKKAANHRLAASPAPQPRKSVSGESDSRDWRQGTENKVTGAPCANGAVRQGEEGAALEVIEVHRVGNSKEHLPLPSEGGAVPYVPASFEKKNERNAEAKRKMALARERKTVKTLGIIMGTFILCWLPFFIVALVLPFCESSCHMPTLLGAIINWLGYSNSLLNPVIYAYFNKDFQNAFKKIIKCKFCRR
Text: The direct or indirect effect on the serotonergic system by, for example, anxiolytic, tranquillising, neuroleptic or antidepressant active compounds is known. Substances according to the invention interact specifically with serotonin receptors from calf hippocampus. The concentration at which 50% of the ^3 H-serotonin employed is displaced is reported (Ki values). Lit.: Peroutka, S. J. and S. H. Snyder, Molec. Pharmacol. 16, 687, 1979.

[2] = test system: amphetamine-induced stereotypic behaviour; test: Amphetamine potentiation; type: in vivo; settings: ip; rat; i.p.; 2 mg/kg DL-amphetamine sulphate i.v.; read-out: ED50 (dose at which amphetamine-induced behaviour is potentiated by 50%)
Method: Substances having antidepressant effects potentiate the amphetamine-inducedstereotypic behaviour of the rat. The ED50 value which is given is the dose at which the behaviour induced after i.v. administration of 2 mg/kg DL-amphetamine sulphate is potentiated by 50%. Lit.: J. L. Howard et al., in: Antidepressants: Neurochemical, Behavioral and Clinical Perspectives, edited by S. J. Enna et al., Raven Press, New York, Pages 107-120, 1981.

[3] = test system: immobility; test: Behavioral Despair; type: in vivo; settings: Rattus norvegicus, ip; rats; i.p.; glass cylinder filled with water; read-out: ED50 (dose at which immobility is reduced by 50%)
Text: When placed in a glass cylinder filled with water, rats initially show vigorous swimming movements which alternate with phases of immobility which increase in length. Many antidepressants of a variety of chemical structures shorten the duration of this immobility. The ED50 value indicates the dose of a test substance at which the immobility during the period of the experiment is reduced by 50%.
Lit.: R. D. Porsolt et al., Europ. J. Pharmacol. 47, 379-391, 1978.

[4] = test system: shock-induced aggressive behaviour; test: Tedeschi test; type: in vivo; settings: Mus musculus, ip; mice; i.p.; shock-induced aggression; read-out: ED50 (dose at which aggressive behaviour is reduced by 50%)
Text: In mice, anxiolytics bring about a reduction in the shock-induced aggressive behaviour. The ED50 value indicates the dose at which the aggressive behaviour is reduced by 50% within the period of the experiment.
Lit.: Tedeschi et all, J. Pharmacol. Exp. Ther. 129, 28-34, 1954.

[5] = test system: Passive avoidance behaviour; test: Passive avoidance behaviour; type: in vivo; settings: Rattus norvegicus, ip; rats; i.p.; electric shock, time to re-entry of darkened box; read-out: ED50 (text: minimum effective dose (MED))
Text: After entering a darkened box, rats receive an electric shock and thus avoid reentering the box. Rats under the influence of anxiolytics enter the box in spite of having experience the shock. The time up to entry into the box is timed with a stopwatch. The minimum effective dose (MED) in mg/kg is reported.

[6] = test system: ptosis induced by tetrabenazine; test: Tetrabenazine antagonism; type: in vivo; settings: Mus musculus, ip; mice; i.p.; tetrabenazine 20 mg/kg i.p.; read-out: ED50 (dose at which tetrabenazine-induced ptosis is reduced to 50%)
Method: Antidepressants antagonise the ptosis induced by tetrabenazine in mice. The ED50 value indicates the dose at which the ptosis induced by tetrabenazine (20 mg/kg i.p.) is reduced to 50%. Lit.: J. L. Howard et al., in: Antidepressants; Neuochemical, Behavioral and Clinical Perspectives, edited by S. J. Enna et al., Raven Press, New York, pages 117-120, 1981.

pIC50 [1]	SMILES	ED50 [2]	ED50 [4]	other results
8.00	O=C1c2ccccc2C(=O)N1CCCCN1CCN(c2ncccn2)CC1 [Example 1, 2-(4-(4-(2-pyrimidinyl)-1-piperazinyl)butyl)isoindole-1,3(2H)dione]	18 mg/kg		
	O=C1c2ccccc2C(=O)N1CCCCN1CCN(c2ncc(-c3ccccc3)cn2)CC1 [Example 4, 2-(4-(4-(5-phenyl-2-pyrimidinyl)-1-piperazinyl)butyl)isoindole-1,3(2H)dion]	3 mg/kg	20 mg/kg	ED50 [3]: 12 mg/kg; minimal effective dose [5]: 1 mg/kg
	O=C1c2ccccc2C(=O)N1CCCN1CCN(c2ncc(-c3ccccc3)cn2)CC1 [Example 6, 2-(3-(4-(5-Phenyl-2-pyrimidinyl)-1-piperazinyl)propyl)isoindole-1,3(2H)dione]		15 mg/kg	ED50 [6]: 40 mg/kg
	O=C1c2ccccc2S(=O)(=O)N1CCCCN1CCN(c2ncccn2)CC1 [Example 7, 2-(4-(4-(2-Pyrimidinyl)-1-piperazinyl)butyl)-1,2-benzisothiazol-3-(2H)one 1,1-dioxide]		5 mg/kg	minimal effective dose [5]: 0.5 mg/kg
	O=C1c2ccccc2C(=O)N1CCCCN1CCN(c2ncc(-c3c(F)cccc3Cl)cn2)CC1 [Example 8, 2-(4-(4-(5-(2-Chloro-6-fluorophenyl)-2-pyrimidinyl)-1-piperazinyl)butyl)-isoindole-1,3(2H)dione]	1 mg/kg	12 mg/kg	ED50 [3]: 33 mg/kg
7.85	O=C1c2cc(Cl)ccc2S(=O)(=O)N1CCCCN1CCN(c2ncccn2)CC1 [Example 10]			minimal effective dose [5]: 1 mg/kg
7.52	O=C1c2ccc(Cl)cc2S(=O)(=O)N1CCCCN1CCN(c2ncccn2)CC1 [Example 11, 2-(4-(4-(2-Pyrimidinyl)-1-piperazinyl)butyl)-6-chloro-1,2-benzisothiazol-3(2H)one 1,1-dioxide]			minimal effective dose [5]: 1 mg/kg
	COc1ccc(-c2cnc(N3CCN(CCCCN4C(=O)c5ccccc5C4=O)CC3)nc2)cc1OC [Example 12, 2-(4-(4-(5-(3,4-Dimethoxyphenyl)- -2-pyrimidinyl)-1-piperazinyl)butyl)-isoindole-1,3(2H)dione]		16 mg/kg	ED50 [3]: 50 mg/kg
	O=C1c2ccccc2C(=O)N1CCN1CCN(c2ncc(-c3ccc(Cl)cc3)cn2)CC1 [Example 15, 1-(2-(4-(5-(4-Chlorophenyl)-2-pyrimidinyl)-1-piperazinyl)ethyl)isoindole-1,3(2H)dione]		6 mg/kg	
	O=C1c2ccccc2C(=O)N1CC(O)CN1CCN(c2ncc(-c3ccc(Cl)cc3)cn2)CC1 (stereo not drawn) [Example 18, 2-(3-(4-(5-(4-chlorophenyl)-2-pyrimidinyl)-1-piperazinyl)-2-hydroxypropyl)isoindole-1,3(2H)dione]		9 mg/kg	ED50 [6]: 21 mg/kg; minimal effective dose [5]: 1 mg/kg
7.52	O=C1Cc2ccccc2C(=O)N1CCCCN1CCN(c2ncccn2)CC1 [Example 19, 2-(4-(4-(2-pyrimidinyl)-1-piperazinyl)butyl)isoquinoline-1,3(2H,4H)dione]			
	COc1ccc(-c2cnc(N3CCN(CCCCN4C(=O)Cc5ccccc5C4=O)CC3)nc2)cc1OC [Example 20, 2-(4-(4-(5-(3,4-Dimethoxyphenyl)-2-pyrimidinyl)-1-piperazinyl)butyl)-isoquinoline-1,3(2H,4H)dione]	5 mg/kg		
7.70	O=C1c2ccc([N+](=O)[O-])cc2S(=O)(=O)N1CCCCN1CCN(c2ncccn2)CC1 [Example 24, 2-(4-(4-(2-Pyrimidinyl)-1-piperazinyl)butyl)-6-nitro-1,2-benzisothiazol-3(2H)one 1,1-dioxide]			
8.00	O=C1Nc2ccccc2S(=O)(=O)N1CCCN1CCN(c2ncccn2)CC1 [Example 32, 2-(3-(4-(2-Pyrimidinyl)-1-piperazinyl)propyl)1,2,4-benzothiadiazin-3(4H)on 1,1-dioxide]			
7.22	O=C1Nc2ccccc2S(=O)(=O)N1CCCCN1CCN(c2ncccn2)CC1 [Example 33, 2-(4-(4-(2-Pyrimidinyl)-1-piperazinyl)butyl)-1,2,4-benzothiadiazin-3(4H)one 1,1-dioxide]			
8.05	CN1C(=O)N(CCCN2CCN(c3ncccn3)CC2)S(=O)(=O)c2ccccc21 [Example 36, 2-(3-(4-(2-Pyrimidinyl)-1-piperazinyl)propyl)-4-methyl-1,2,4-benzothiadiazin-3(4H)one 1,1-dioxide]			
7.10	CN1C(=O)N(CCCCN2CCN(c3ncccn3)CC2)S(=O)(=O)c2ccccc21 [Example 37, 2-(4-(4-(2-Pyrimidinyl)-1-piperazinyl)butyl)-4-methyl-1,2,4-benzothiadiazin-3(4H)one 1,1-dioxide]			
	NCCCCN1CCN(c2ncc(-c3ccccc3)cn2)CC1 [Example 49, 1-(4-aminobutyl)-5-(5-phenyl-2-phenyl-2-pyrimidinyl)piperazine]	3 mg/kg		
	NCCCCN1CCN(c2ncc(-c3c(F)cccc3Cl)cn2)CC1 [Example 50, 1-(4-Aminobutyl)-4-(5-(2-fluoro-6-chlorophenyl)-2-pyrimidinyl)piperazinehydrochloride]	3 mg/kg	32 mg/kg	
	CCOC(=O)N1CCN(c2ncc(-c3ccccc3)cn2)CC1 [Example 54, ethyl 4-(5-phenyl-2-pyrimidinyl)-1-piperazinecarboxylate]	0.4 mg/kg	10 mg/kg	ED50 [3]: 20 mg/kg; minimal effective dose [5]: 5 mg/kg
	c1ccc(-c2cnc(N3CCNCC3)nc2)cc1 [Example 60, 1-(5-phenyl-2-pyrimidinyl)piperazine]	16 mg/kg		ED50 [6]: 5 mg/kg
	Fc1cccc(Cl)c1-c1cnc(N2CCNCC2)nc1 [Example 61, 1-(5-(2-Fluoro-6-chlorophenyl)-2-pyrimidinyl)piperazine]	5 mg/kg		
	c1ccc2c(-c3cnc(N4CCNCC4)nc3)c[nH]c2c1 [Example 64, 1-(5-(3-Indolyl)-2-pyrimidinyl)piperazine]	2 mg/kg		ED50 [6]: 18 mg/kg
